From patent US8586591B2, “Aminopyrazine derivative and medicine” (Nippon Shinyaku Co., Ltd., priority 2009, dated 2013)
Counter-ions that a name gives are not always drawn. Like-named read-outs stand apart in the source and are kept apart here.

Legend:
JAK2 tyrosine kinase = biological target: T1, JAK2 tyrosine kinase (Homo sapiens, UniProt O60674); assay: Test 1: inhibitory activity to JAK2 tyrosine kinase (ELISA); type: biochemical; conditions: 25 μM ATP in substrate solution, 30° C. for 1 hour, n=2
T1 construct: purchased Carnabioscience Co
Procedure, shortened: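 Human JAK2 (diluted to 0.75 nM before addition) phosphorylated a biotinylated peptide on streptavidin plates for 1 h at 30 °C. The substrate mix held 625 nM peptide, 25 μM ATP and 25 mM MgCl2 in 15 mM Tris pH 7.5, 0.01% Tween-20 and 1 mM DTT. Phosphotyrosine was detected by HRP antibody/TMB at 450 nm, and IC50 was obtained by non-linear regression; duplicates were run.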

JAK3 tyrosine kinase = biological target: T2, JAK3 tyrosine kinase (Homo sapiens, UniProt P52333); assay: Test 1: inhibitory activity to JAK3 tyrosine kinase (ELISA); type: biochemical; conditions: 25 μM ATP in substrate solution, 30° C. for 1 hour, n=2
T2 construct: purchased Carnabioscience Co
T2 sequence (P52333 1-1124): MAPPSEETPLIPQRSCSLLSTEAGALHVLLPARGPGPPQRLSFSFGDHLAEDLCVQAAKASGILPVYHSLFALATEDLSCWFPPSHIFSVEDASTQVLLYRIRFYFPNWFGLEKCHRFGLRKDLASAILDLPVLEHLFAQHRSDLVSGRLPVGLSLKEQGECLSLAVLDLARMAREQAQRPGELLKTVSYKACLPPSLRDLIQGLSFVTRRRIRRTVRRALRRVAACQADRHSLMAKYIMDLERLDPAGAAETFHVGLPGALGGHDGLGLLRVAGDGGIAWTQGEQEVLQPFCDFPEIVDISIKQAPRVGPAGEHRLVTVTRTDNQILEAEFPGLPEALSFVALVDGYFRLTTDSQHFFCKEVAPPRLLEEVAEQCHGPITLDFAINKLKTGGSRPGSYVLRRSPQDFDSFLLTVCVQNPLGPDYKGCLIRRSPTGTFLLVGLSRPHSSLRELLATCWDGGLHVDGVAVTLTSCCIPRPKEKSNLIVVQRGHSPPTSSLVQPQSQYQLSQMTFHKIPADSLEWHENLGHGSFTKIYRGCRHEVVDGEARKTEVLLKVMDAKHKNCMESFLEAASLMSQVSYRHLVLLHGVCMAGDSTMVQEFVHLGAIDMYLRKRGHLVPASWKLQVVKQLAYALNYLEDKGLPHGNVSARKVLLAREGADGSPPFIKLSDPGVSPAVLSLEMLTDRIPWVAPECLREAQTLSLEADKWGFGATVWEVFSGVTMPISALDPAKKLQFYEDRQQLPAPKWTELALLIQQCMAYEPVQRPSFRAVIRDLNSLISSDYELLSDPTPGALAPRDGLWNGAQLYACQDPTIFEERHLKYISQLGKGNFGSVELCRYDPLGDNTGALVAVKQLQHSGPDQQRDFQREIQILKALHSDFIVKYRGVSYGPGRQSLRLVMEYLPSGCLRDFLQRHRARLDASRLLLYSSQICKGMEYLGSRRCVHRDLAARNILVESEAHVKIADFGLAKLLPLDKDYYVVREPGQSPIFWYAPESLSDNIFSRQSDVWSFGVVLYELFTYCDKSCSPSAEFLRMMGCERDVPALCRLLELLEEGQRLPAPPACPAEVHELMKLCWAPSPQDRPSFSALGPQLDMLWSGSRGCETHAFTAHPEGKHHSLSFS
Procedure, shortened: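 ELISA of JAK3 kinase activity with absorbance read at 450 nm. Compounds were tested from DMSO dilution series at 100-fold the measurement concentrations (1000–0.01 μM), diluted up to 20 times in assay buffer, against a DMSO negative control. IC50 was estimated by non-linear regression of absorbance.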

[1] = biological target: BaF3 cells into which JAK2 V617F gene was introduced (Homo sapiens, UniProt O60674, V617F, cells depend on it); assay: Test 2: growth inhibitory action against variant JAK2 expressed cells (MTT method); type: cell-based; conditions: incubation for 3 days, triplicate, read-out: concentration of the test material which inhibited 50% of the cell growth (IC50)
Protocol: Test 2: Growth inhibitory action against variant JAK2 expressed cells
BaF3 cells into which JAK2 V617F gene was introduced ([…]) were inoculated on a 96-well plate in an amount of 1×10^3 cells/well and allowed to stand in a CO2 incubator. Next day, the test material was added to the cells. The test material was serially diluted with DMSO to give 10 mM, 6 mM, 3 mM, 1 mM, 600 μM, 300 μM, 100 μM, 60 μM, 30 μM, or 10 μM solution. This was diluted 100 times with distilled water to give 100 μM, 60 μM, 30 μM, 10 μM, 6 μM, 3 μM, 1 μM, 600 nM, 300 nM, or 100 nM solution. This solution of test material was added to the well in an amount of 10 μl/well. As a negative control, 1% DMSO solution was added to the well in an amount of 10 μl/well. In the above operation, the final concentration of the test material became 10 μM, 6 μM, 3 μM, 1 μM, 600 nM, 300 nM, 100 nM, 60 nM, 30 nM, 10 nM, or 0 nM (0.1% DMSO solution). The addition of the test material solution to each well was made in triplicate.
After continuous incubation for 3 days, the viable count was determined by an MTT method. The MTT method was carried out as follows. First, 10 μl each of solution containing 5 mg/ml of MTT (3-(4,5-dimethylthiazol-2-yl)-2,5-diphenyltetrazolium bromide) was added to each well. The plate was allowed to stand in a CO2 incubator for 4 hours, and then 100 μl of 0.04N HCl/2-propanol solution was added to each well to stop the reaction. The generated MTT-formazan was dissolved well with a multi-channel pipette, and the absorbance at 595 nm was measured with reference to that at 655 nm (Thermo Co.; Multiskan FC). Non-linear regression analysis was made by means of a SAS system (SAS Institute Inc.), and the concentration (IC50) of the test material which inhibited 50% of the cell growth was estimated.

T1 sequence (O60674 whole entry): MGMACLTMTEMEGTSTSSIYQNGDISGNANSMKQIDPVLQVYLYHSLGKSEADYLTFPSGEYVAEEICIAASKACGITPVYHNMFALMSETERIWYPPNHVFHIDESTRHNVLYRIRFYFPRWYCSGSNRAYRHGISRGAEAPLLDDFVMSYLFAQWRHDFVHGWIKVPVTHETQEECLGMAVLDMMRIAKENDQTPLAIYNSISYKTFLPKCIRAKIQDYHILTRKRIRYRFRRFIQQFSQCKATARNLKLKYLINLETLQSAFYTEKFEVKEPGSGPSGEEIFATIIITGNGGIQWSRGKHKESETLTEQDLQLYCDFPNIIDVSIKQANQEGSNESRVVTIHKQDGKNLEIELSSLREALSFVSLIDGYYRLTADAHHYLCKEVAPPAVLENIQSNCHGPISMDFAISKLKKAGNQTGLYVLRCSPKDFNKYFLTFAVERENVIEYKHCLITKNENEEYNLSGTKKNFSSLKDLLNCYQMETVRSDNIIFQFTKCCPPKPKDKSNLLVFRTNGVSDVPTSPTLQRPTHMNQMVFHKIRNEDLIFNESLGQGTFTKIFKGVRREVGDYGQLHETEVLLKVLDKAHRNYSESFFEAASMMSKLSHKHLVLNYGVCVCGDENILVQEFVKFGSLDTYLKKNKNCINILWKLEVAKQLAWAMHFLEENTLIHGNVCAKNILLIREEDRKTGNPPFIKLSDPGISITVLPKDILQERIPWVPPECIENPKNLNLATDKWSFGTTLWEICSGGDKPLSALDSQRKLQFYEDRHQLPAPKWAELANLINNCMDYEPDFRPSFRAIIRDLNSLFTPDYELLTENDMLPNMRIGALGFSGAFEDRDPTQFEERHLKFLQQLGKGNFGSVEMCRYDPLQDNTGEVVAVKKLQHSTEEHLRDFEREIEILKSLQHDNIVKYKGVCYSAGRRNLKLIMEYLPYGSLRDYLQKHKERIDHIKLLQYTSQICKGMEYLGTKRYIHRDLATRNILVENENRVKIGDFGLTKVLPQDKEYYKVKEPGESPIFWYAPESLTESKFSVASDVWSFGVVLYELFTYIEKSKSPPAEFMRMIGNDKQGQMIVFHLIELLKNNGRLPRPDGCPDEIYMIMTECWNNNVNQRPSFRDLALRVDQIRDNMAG
Sequence of BaF3 cells into which JAK2 V617F gene was introduced (O60674 whole entry V617F): as the sequence (O60674 whole entry) above, with V617F counted along it

SMILES: C[C@H](Nc1nc(Nc2cnccn2)cc(N2CCC3(CC2)COC(=O)O3)n1)c1ccc(F)cc1 [Example 112, (S)-8-{2-[1-(4-Fluorophenyl)ethylamino]-6-(pyrazin-2-ylamino)pyrimidin-4-yl}-1,3-dioxo-8-azaspiro[4.5]decan-2-one]
- IC50 (JAK2 tyrosine kinase): 0.69 nM
- IC50 (JAK3 tyrosine kinase): 67 nM
- GI50 [1]: 64 nM

SMILES: C[C@H](Nc1nc(Nc2cnccn2)cc(N2CC(N3CCCC3)C2)n1)c1ccc(F)cc1 [Example 222, (S)—N^2-[1-(4-Fluorophenyl)ethyl]-N^4-(pyrazin-2-yl)-6-[3-(pyrrolidin-1-yl)azetidin-1-yl]pyrimidine-2,4-diamine]
- IC50 (JAK2 tyrosine kinase): 0.75 nM
- IC50 (JAK3 tyrosine kinase): 18 nM
- GI50 [1]: 66 nM

SMILES: C[C@H](Nc1nc(Nc2cnccn2)cc(N2CC(CO)C2)n1)c1ccc(F)cc1 [Example 228, (S)-(1-{2-[1-(4-Fluorophenyl)ethylamino]-6-(pyrazin-2-ylamino)pyrimidin-4-yl}azetidin-3-yl)methanol]
- IC50 (JAK2 tyrosine kinase): 1.1 nM
- IC50 (JAK3 tyrosine kinase): 19 nM
- GI50 [1]: 89 nM

SMILES: C[C@H](Nc1nc(Nc2cnccn2)cc(N2CCC(NS(C)(=O)=O)C2)n1)c1ccc(F)cc1 (stereo partly drawn) [Example 60, N-(1-{2-[(S)-1-(4-Fluorophenyl)ethylamino]-6-(pyrazin-2-ylamino)pyrimidin-4-yl}pyrrolidin-3-yl)methanesulfonamide hydrochloride]
- IC50 (JAK2 tyrosine kinase): 0.71 nM
- IC50 (JAK3 tyrosine kinase): 28 nM
- GI50 [1]: 80 nM

SMILES: C[C@H](Nc1cc(-c2cn[nH]c2)cc(Nc2cnccn2)n1)c1ccc(F)cc1 [Example 28, (S)—N^2-[1-(4-Fluorophenyl)ethyl]-N^6-(pyrazin-2-yl)-4-(1H-pyrazol-4-yl)pyridine-2,6-diamine]
- IC50 (JAK2 tyrosine kinase): 1.2 nM
- IC50 (JAK3 tyrosine kinase): 110 nM
- GI50 [1]: 94 nM

SMILES: C[C@H](Nc1nc(Nc2cnccn2)cc(N2CC(N(C)C)C2)n1)c1ccc(F)cc1 [Example 220, (S)-6-[3-(Dimethylamino)azetidin-1-yl]-N^2-[1-(4-fluorophenyl)ethyl]-N^4-(pyrazin-2-yl)pyrimidine-2,4-diamine]
- IC50 (JAK2 tyrosine kinase): 0.98 nM
- IC50 (JAK3 tyrosine kinase): 24 nM
- GI50 [1]: 64 nM

SMILES: C[C@H](Nc1cc(-c2cnn(C)c2)cc(Nc2cnccn2)n1)c1ccc(F)cc1 [Example 4, (S)—N^2-[1-(4-Fluorophenyl)ethyl]-4-(1-methyl-1H-pyrazol-4-yl)-N^6-(pyrazin-2-yl)pyridine-2,6-diamine hydrochloride]
- IC50 (JAK2 tyrosine kinase): 0.59 nM
- IC50 (JAK3 tyrosine kinase): 44 nM
- GI50 ([1]; hydrochloride): 71 nM

SMILES: C[C@H](Nc1nc(Nc2cnccn2)cc(N2CC(O)(C3CC3)C2)n1)c1ccc(F)cc1 [Example 200, (S)-3-Cyclopropyl-1-{2-[1-(4-fluorophenyl)ethylamino]-6-(pyrazin-2-ylamino)pyrimidin-4-yl}azetidin-3-ol hydrochloride]
- IC50 (JAK2 tyrosine kinase): 0.39 nM
- IC50 (JAK3 tyrosine kinase): 26 nM
- GI50 [1]: 70 nM

SMILES: C[C@H](Nc1nc(Nc2cnccn2)cc(N2CCN(S(C)(=O)=O)CC2)n1)c1ccc(F)cc1 [Example 65, (S)—N^2-[1-(4-Fluorophenyl)ethyl]-6-[4-(methylsulfonyl)piperazin-1-yl]-N^4-(pyrazin-2-yl)pyrimidine-2,4-diamine hydrochloride]
- IC50 (JAK2 tyrosine kinase): 0.27 nM
- IC50 (JAK3 tyrosine kinase): 8.9 nM
- GI50 [1]: 93 nM

SMILES: C[C@H](Nc1cc(-c2cnn(C)c2)cc(Nc2cnccn2)n1)c1ccc(F)cc1 [Example 30, (S)—N^2-[1-(4-Fluorophenyl)ethyl]-4-(1-methyl-1H-pyrazol-4-yl)-N^6-(pyrazin-2-yl)pyridine-2,6-diamine maleate]
- IC50 (JAK2 tyrosine kinase): 1.5 nM
- IC50 (JAK3 tyrosine kinase): 75 nM
- GI50 ([1]; maleate): 60 nM

SMILES: C[C@H](Nc1nc(Nc2cnccn2)cc(N2CCOCC2)n1)c1ccc(F)cc1 [Example 20, (S)—N^2-[1-(4-Fluorophenyl)ethyl]-6-morpholino-N^4-(pyrazin-2-yl)pyrimidine-2,4-diamine]
- IC50 (JAK2 tyrosine kinase): 0.69 nM
- IC50 (JAK3 tyrosine kinase): 21 nM
- GI50 [1]: 55 nM

SMILES: C[C@H](Nc1cc(C(=O)NCC2CC2)cc(Nc2cnccn2)n1)c1ccc(F)cc1 [Example 167, (S)—N-Cyclopropylmethyl-2-[1-(4-fluorophenyl)ethylamino]-6-(pyrazin-2-ylamino) isonicotinamide]
- IC50 (JAK2 tyrosine kinase): 1.6 nM
- IC50 (JAK3 tyrosine kinase): 350 nM
- GI50 [1]: 63 nM

SMILES: C[C@H](Nc1nc(Nc2cnccn2)cc(N2CC(N3CCC(O)CC3)C2)n1)c1ccc(F)cc1 [Example 225]
- IC50 (JAK2 tyrosine kinase): 0.69 nM
- IC50 (JAK3 tyrosine kinase): 13 nM
- GI50 [1]: 64 nM

SMILES: C[C@H](Nc1nc(Nc2cnccn2)cc(N2CC(N3CCOCC3)C2)n1)c1ccc(F)cc1 [Example 223, (S)—N^2-[1-(4-Fluorophenyl)ethyl]-6-(3-morpholinoazetidin-1-yl)-N^4-(pyrazin-2-yl)pyrimidine-2,4-diamine]
- IC50 (JAK2 tyrosine kinase): 0.65 nM
- IC50 (JAK3 tyrosine kinase): 11 nM
- GI50 [1]: 57 nM

SMILES: C[C@H](Nc1nc(Nc2cnccn2)cc(N2CCC(O)(CO)CC2)n1)c1ccc(F)cc1 [Example 105, (S)-1-{2-[1-(4-Fluorophenyl)ethylamino]-6-(pyrazin-2-ylamino)pyrimidin-4-yl}-4-(hydroxymethyl)piperidin-4-ol]
- IC50 (JAK2 tyrosine kinase): 0.55 nM
- IC50 (JAK3 tyrosine kinase): 27 nM
- GI50 [1]: 60 nM

SMILES: CCS(=O)(=O)NCC1CN(c2cc(Nc3cnccn3)nc(N[C@@H](C)c3ccc(F)cc3)n2)C1 [Example 231, (S)—N-[(1-{2-[1-(4-Fluorophenyl)ethylamino]-6-(pyrazin-2-ylamino)pyrimidin-4-yl}azetidin-3-yl)methyl]ethane sulfonamide]
- IC50 (JAK2 tyrosine kinase): 0.59 nM
- IC50 (JAK3 tyrosine kinase): 33 nM
- GI50 [1]: 97 nM

SMILES: C[C@H](Nc1nc(Nc2cnccn2)cc(N2CC(NS(C)(=O)=O)C2)n1)c1ccc(F)cc1 [Example 177, (S)—N-(1-{2-[1-(4-Fluorophenyl)ethylamino]-6-(pyrazin-2-ylamino)pyrimidin-4-yl}azetidin-3-yl)methanesulfonamide]
- IC50 (JAK2 tyrosine kinase): 0.74 nM
- IC50 (JAK3 tyrosine kinase): 87 nM

SMILES: C[C@H](Nc1cc(N2CC(F)(F)C2)cc(Nc2cnccn2)n1)c1ccc(F)cc1 [Example 207, (S)-4-(3,3-Difluoroazetidin-1-yl)-N^2-[1-(4-fluorophenyl)ethyl]-N^6-(pyrazin-2-yl)pyridine-2,6-diamine hydrochloride]
- IC50 (JAK2 tyrosine kinase): 7 nM
- IC50 (JAK3 tyrosine kinase): 300 nM
